# Data from patent US20240000747A1, “SIRTUIN 6 ACTIVATOR” (DAICEL CORPORATION, priority 2020, published 2024).
# Tested on: human SIRT6 promoter
# Assay: SIRT6 promoter activity in Caco-2-SIRT6p-EGFP reporter cells
# Assay type: cell-based
# Settings: Caco-2-SIRT6p-EGFP cells, 10 μM test component, two days after addition, EGFP fluorescence, relative ratio to control (PBS); FIG. 1
# From the text: The human SIRT6 promoter region (from −1105 to −1 bp; SEQ ID NO: 1) was amplified by PCR using KOD FX (TOYOBO, Tokyo, Japan) with genomic DNA derived from human fetal fibroblast TIG-1 as a template. Primers used were obtained by adding restriction endonuclease recognition sequences of AseI and NheI to the ends based on the reported base sequence information of the hSIRT6 promoter. Specifically, […] designed as SIRT6p-AseI ([…]: SEQ ID NO: 2) and SIRT6p-NheI ([…]: SEQ ID NO: 3) were used. KOD FX (TOYOBO) was used as the DNA polymerase, and PCR was performed under reaction conditions of 40 cycles with one cycle of 94° C. for 2 minutes, 98° C. for 10 seconds, and 68° C. for 1 minute.
# The SIRT6 promoter fragment obtained by PCR was TA-cloned into a pGEM-T Easy Vector (Promega Corporation). In addition, the base sequence was confirmed by sequencing. The SIRT6 promoter fragment incorporated into the pGEM-T Easy vector was excised by digestion with restriction enzymes AseI and NheI and inserted into a site of EGFP-C3 (available from Takara Bio Inc.) from which the CMV promoter had been removed by AseI and NheI digestion, and pSIRT6p-EGFP was obtained.
# Transfection was performed using HilyMax available from DOJINDO in accordance with its protocol. On the day before transfection, 6.0×10^5 cells of Caco-2 cells (human colon cancer-derived cells; obtained from RIKEN BioResource Research Center) were seeded in a 5-mL dish. On the day of transfection, pSIRT6p-EGFP (15 μg) was diluted with DMEM medium containing 10% FBS to a volume of 300 μL in a 1.5-mL tube, then 70 μL of Hilymax was added to the tube, and the mixture was incubated at room temperature for 20 minutes. Thereafter, the whole amount was added to Caco-2 cells and cultured for 48 hours.
# Based on the fact that pSIRT6p-EGFP is resistant to the drug G418 (available from Wako Pure Chemical Industries, Ltd.), drug selection was performed by adding the drug G418 to transfected cells to a final concentration of 800 μg/mL. The culture medium was replaced with a fresh culture medium every 3 days, and G418 was added at the same concentration each time. Caco-2-SIRT6p-EGFP cells were obtained from this.
# Using Caco-2-SIRT6p-EGFP cells, a urolithin was examined for its enhancing effect on the promoter of the sirtuin 6 gene SIRT6. […]
# Caco-2-SIRT6p-EGFP cells were seeded in a 96-well plate at 0.6×10^4 cells/well. […] This was followed by aspiration and addition of 100 μL of PBS to each well, and the fluorescence intensity was measured with an IN Cell Analyzer 1000 (GE-Healthcare, Amersham Place, UK). The promoter activity was expressed as a relative ratio to the control activity.
row,Compound,relative SIRT6 promoter activity (SIRT6 promoter-enhancing activity)
1,O=C1OC[C@H]2OC(O)[C@H](O)[C@@H](O)[C@@H]2OC(=O)c2cc(O)c(O)c(O)c2-c2c(O)c(O)c3oc(=O)c4c(c(O)c(O)c5oc(=O)c2c3c54)-c2c1cc(O)c(O)c2O (mixture of isomers) [punicalin],no or little SIRT6 promoter-enhancing activity
2,C[C@@]12CCc3occc3[C@H]1CC[C@@]13C[C@@H](CC[C@H]12)[C@@](O)(CO)C3 [cafestol],no or little SIRT6 promoter-enhancing activity
3,O=c1oc2cc(O)ccc2c2ccc(O)cc12 [urolithin A],strong SIRT6 promoter-enhancing activity
4,puricalagin,no or little SIRT6 promoter-enhancing activity
